Results reported in ChEMBL document CHEMBL1146263, “Antibiotic-conjugated polyacrylate nanoparticles: new opportunities for development of anti-MRSA agents” (Bioorg Med Chem Lett, 2007).
In brackets after ≈: the same amount, converted by molar mass.

How the values were obtained:
Staphylococcus aureus [1] = experiment: Antibacterial activity against Staphylococcus aureus ATCC 25923 after 24 hrs by agar dilution method; format: functional; settings: ATCC 25923, 24 h
Staphylococcus aureus [2] = experiment: Antibacterial activity against methicillin-resistant Staphylococcus aureus ATCC 43300 after 24 hrs by agar dilution method; format: functional; settings: ATCC 43300, 24 h
[3] = Toxicity in human dermal fibroblasts; format: cell-based; settings: fibroblast
[4] = Chemical stability up to 60 degC after 24 hrs; format: physicochemical
Serum = experiment: Stability in human blood serum after 24 hrs; format: ADME, cell-free

Row | Compound | MIC (Staphylococcus aureus [1]) | MIC (Staphylococcus aureus [2]) | Activity [3] | Activity [4] | Activity (Serum)
1 | C=CC(=O)Oc1ccc(C2C(OC)C(=O)N2SC)cc1 (stereo not given) | 128 µg/mL (≈ 436 µM) | 128 µg/mL (≈ 436 µM) | Non-toxic | Stable | Stable
2 | C=CC(=O)Oc1ccc(C2C(OC(=O)C=C)C(=O)N2SC)cc1 (stereo not given) | 128 µg/mL (≈ 384 µM) | 128 µg/mL (≈ 384 µM) | Non-toxic | Stable | Stable
3 | C=CC(=O)OC1C(=O)N(SC)C1c1ccccc1Cl (stereo not given) | 128 µg/mL (≈ 430 µM) | 128 µg/mL (≈ 430 µM) | Non-toxic | Stable | Stable
4 | C=CC(=O)OCCOC(=O)CCC(=O)OC1C(=O)N(SC)C1c1ccccc1Cl (stereo not given) | 64 µg/mL (≈ 145 µM) | 64 µg/mL (≈ 145 µM) | Non-toxic | Stable | Stable
